# Source: ChEMBL document CHEMBL5338788, “Discovery of a New-Generation S-Adenosylmethionine-Noncompetitive Covalent Inhibitor Targeting the Lysine Methyltransferase Enhancer of Zeste Homologue 2” (J Med Chem, 2023)
# Activity calls are given as the source filed them. The rule behind the calls is not given here.
# Tests used:
# KARPAS-422 [1] = assay: Downregulation of H2K27me3 level in human KARPAS-422 cells incubated for 48 to 96 hrs by Western blot analysis; format: functional, cell-based; conditions: dose 0.05-1 µM, time 48-96 hrs
# KARPAS-422 [2] = assay: Downregulation of H2K27me3 level in human KARPAS-422 cells at 0.05 to 1 uM by Western blot analysis; format: functional, cell-based; conditions: dose 0.05-1 µM, time 48-96 hrs, TDE = time-dependent effect
# KARPAS-422 [3] = assay: Antiproliferative activity against human KARPAS-422 cells expressing EZH2 Y641N mutant assessed as inhibition of cell proliferation incubated for 6 days by CCK8 assay; format: functional, cell-based; conditions: KARPAS-422, 144 h
# Pfeiffer [4] = assay: Antiproliferative activity against human Pfeiffer cells expressing EZH2 […] mutant assessed as inhibition of cell proliferation incubated for 6 days by CCK8 assay; format: functional, cell-based; conditions: 144 h
# [5] = Metabolic stability in human liver microsomes assessed as half life preincubated for 10 mins followed by NADPH addition measured upto 60 mins by LC-MS/MS analysis; format: ADME, Microsome; conditions: time < 70 min
# [6] = Apparent permeability in human Caco-2 cells at 20 uM measured for 35 to 95 mins by LC-MS/MS analysis; format: ADME, cell-based; conditions: time 35-95 min
# Pfeiffer [7] = assay: Downregulation of H2K27me3 level in human Pfeiffer cells incubated for 48 to 96 hrs by Western blot analysis; format: functional, cell-based; conditions: dose 0.05-1 µM, time 48-96 hrs
# Pfeiffer [8] = assay: Downregulation of H2K27me3 level in human Pfeiffer cells at 0.05 to 1 uM by Western blot analysis; format: functional, cell-based; conditions: dose 0.05-1 µM, time 48-96 hrs, TDE = time-dependent effect
# Pfeiffer [9] = assay: Effect on total H3 level in human Pfeiffer cells at 0.05 to 1 uM incubated for 48 to 96 hrs by Western blot analysis; format: functional, cell-based; conditions: dose 0.05-1 µM, time 48-96 hrs
# Pfeiffer [10] = assay: Effect on EZH2 level in human Pfeiffer cells at 0.05 to 1 uM incubated for 48 to 96 hrs by Western blot analysis; format: functional, cell-based; conditions: dose 0.05-1 µM, time 48-96 hrs
# Pfeiffer [11] = assay: Downregulation of H3K27me3 level in human Pfeiffer cells at 1 uM incubated for 96 hrs followed by compound washout measured after 120 hrs by Western blot analysis; format: functional, cell-based; conditions: time 216.0 hrs
# [12] = Antiproliferative activity against human WILL-1 cells expressing wild-type EZH2 assessed as inhibition of cell proliferation incubated for 6 days by CCK8 assay; format: functional, cell-based; conditions: WILL-1, 144 h
# [13] = target: T1, Protein arginine N-methyltransferase 1 (Homo sapiens, UniProt Q99873); assay: Inhibition of PRMT1 (unknown origin) using histone peptide/SAM as substrate by AlphaLisa assay
# [14] = target: Histone-arginine methyltransferase CARM1 (Homo sapiens, UniProt Q86X55); assay: Inhibition of PRMT4 (unknown origin) using histone peptide/SAM as substrate by AlphaLisa assay
# [15] = target: T2, Protein arginine N-methyltransferase 5 (Homo sapiens, UniProt O14744); assay: Inhibition of PRMT5 (unknown origin) using histone peptide/SAM as substrate by AlphaLisa assay
# T2 sequence (O14744 whole entry): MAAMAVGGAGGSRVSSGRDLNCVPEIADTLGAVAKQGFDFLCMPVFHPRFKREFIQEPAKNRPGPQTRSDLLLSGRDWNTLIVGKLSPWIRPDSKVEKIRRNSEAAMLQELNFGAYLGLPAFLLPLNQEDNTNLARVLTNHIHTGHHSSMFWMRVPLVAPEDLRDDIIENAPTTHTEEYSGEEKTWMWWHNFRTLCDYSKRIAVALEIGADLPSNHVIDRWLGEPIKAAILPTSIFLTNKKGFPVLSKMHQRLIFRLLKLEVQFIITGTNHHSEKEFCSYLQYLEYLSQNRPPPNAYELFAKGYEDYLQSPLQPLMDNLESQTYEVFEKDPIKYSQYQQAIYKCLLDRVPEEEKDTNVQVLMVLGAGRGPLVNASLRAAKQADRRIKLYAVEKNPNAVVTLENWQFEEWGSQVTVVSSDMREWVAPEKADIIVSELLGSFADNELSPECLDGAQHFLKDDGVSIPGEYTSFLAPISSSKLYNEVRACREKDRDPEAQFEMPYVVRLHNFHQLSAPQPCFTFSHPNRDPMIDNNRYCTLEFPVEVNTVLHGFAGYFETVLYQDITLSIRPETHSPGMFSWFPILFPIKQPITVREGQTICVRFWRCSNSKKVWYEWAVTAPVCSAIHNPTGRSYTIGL
# [16] = target: T3, Histone-lysine N-methyltransferase, H3 lysine-36 specific (Homo sapiens, UniProt Q96L73); assay: Inhibition of NSD1 (unknown origin) using histone peptide/SAM as substrate by AlphaLisa assay
# [17] = target: Histone-lysine N-methyltransferase NSD2 (Homo sapiens, UniProt O96028); assay: Inhibition of NSD2 (unknown origin) using histone peptide/SAM as substrate by AlphaLisa assay
# [18] = target: T4, Histone-lysine N-methyltransferase 2A (Homo sapiens, UniProt Q03164); assay: Inhibition of MLL1 (unknown origin) using histone peptide/SAM as substrate by HTRF assay
# [19] = target: T5, Histone-lysine N-methyltransferase 2B (Homo sapiens, UniProt Q9UMN6); assay: Inhibition of MLL4 (unknown origin) using histone peptide/SAM as substrate by HTRF assay
# T5 sequence (Q9UMN6 whole entry): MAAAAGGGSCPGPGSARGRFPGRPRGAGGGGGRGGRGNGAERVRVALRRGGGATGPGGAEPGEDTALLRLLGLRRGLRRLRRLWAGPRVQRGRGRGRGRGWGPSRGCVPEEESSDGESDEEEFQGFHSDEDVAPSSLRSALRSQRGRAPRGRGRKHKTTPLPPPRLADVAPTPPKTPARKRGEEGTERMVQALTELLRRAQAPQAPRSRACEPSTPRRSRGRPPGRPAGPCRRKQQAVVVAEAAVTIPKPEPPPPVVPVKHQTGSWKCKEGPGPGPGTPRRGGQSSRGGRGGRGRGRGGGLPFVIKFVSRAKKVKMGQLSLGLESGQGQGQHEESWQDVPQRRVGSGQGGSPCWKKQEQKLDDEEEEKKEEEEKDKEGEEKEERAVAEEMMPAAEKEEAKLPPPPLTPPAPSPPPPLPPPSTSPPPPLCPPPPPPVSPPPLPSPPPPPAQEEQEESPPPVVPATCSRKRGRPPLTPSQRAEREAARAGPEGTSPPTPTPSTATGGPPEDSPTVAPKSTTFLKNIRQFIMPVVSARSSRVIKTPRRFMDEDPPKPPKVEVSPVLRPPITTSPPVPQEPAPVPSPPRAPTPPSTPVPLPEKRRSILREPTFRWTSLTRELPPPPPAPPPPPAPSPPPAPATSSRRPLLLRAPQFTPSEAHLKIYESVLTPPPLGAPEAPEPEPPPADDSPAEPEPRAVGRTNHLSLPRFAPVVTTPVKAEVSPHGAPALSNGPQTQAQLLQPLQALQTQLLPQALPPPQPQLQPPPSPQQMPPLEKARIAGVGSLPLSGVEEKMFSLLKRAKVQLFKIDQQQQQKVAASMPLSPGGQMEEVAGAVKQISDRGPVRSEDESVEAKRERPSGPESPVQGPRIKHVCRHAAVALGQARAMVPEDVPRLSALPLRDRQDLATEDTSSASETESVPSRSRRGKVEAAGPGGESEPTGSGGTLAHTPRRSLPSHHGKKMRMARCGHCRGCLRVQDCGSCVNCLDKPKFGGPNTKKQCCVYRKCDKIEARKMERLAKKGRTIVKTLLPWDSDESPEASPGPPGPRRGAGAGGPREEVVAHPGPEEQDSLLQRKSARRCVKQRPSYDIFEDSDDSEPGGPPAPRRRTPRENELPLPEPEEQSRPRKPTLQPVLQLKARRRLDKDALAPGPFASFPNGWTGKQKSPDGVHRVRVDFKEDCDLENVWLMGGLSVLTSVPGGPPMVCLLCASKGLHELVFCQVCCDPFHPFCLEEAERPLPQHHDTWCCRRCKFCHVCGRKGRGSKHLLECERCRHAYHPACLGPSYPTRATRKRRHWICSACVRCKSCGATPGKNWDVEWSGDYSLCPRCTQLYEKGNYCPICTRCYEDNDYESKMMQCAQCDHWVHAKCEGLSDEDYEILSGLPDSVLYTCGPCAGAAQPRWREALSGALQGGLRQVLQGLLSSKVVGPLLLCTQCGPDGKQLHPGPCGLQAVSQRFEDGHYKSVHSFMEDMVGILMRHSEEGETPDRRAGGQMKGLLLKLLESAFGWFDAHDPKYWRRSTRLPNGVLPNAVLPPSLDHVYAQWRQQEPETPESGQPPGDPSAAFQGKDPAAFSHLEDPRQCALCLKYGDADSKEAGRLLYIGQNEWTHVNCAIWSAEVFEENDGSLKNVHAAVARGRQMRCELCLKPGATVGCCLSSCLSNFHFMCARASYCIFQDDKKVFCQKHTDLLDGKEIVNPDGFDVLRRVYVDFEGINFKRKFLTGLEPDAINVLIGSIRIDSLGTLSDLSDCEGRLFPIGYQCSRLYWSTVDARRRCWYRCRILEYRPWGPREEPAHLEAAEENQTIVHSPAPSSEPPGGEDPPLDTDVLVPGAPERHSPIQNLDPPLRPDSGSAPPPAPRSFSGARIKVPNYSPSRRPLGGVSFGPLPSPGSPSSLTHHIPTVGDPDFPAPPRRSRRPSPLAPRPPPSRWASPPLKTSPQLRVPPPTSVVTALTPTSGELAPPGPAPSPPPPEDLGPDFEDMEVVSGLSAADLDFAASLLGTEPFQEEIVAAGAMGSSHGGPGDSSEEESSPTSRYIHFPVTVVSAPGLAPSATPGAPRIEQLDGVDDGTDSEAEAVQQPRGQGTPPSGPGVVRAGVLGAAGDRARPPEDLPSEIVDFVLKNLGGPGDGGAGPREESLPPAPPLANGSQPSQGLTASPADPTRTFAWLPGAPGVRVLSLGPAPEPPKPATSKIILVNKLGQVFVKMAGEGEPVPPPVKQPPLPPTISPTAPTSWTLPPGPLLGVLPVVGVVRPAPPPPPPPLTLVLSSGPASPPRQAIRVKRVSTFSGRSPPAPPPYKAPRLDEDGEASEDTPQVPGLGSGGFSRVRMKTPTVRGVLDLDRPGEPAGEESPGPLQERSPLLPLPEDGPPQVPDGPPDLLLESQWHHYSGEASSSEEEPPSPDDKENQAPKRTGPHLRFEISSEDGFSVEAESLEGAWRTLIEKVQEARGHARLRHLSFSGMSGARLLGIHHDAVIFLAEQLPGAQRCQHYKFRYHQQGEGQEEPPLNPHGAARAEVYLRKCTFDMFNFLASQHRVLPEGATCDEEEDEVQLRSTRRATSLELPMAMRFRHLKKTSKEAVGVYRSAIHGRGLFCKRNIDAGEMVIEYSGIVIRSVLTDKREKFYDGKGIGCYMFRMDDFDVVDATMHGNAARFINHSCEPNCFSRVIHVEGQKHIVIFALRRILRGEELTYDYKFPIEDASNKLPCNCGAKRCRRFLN
# [20] = target: Histone-lysine N-methyltransferase EHMT2 (Homo sapiens, UniProt Q96KQ7); assay: Inhibition of G9a (unknown origin) using histone peptide/SAM as substrate by AlphaLisa assay
# [21] = target: Histone-lysine N-methyltransferase EHMT1 (Homo sapiens, UniProt Q9H9B1); assay: Inhibition of GLP (unknown origin) using histone peptide/SAM as substrate by AlphaLisa assay
# [22] = target: T6, DNA (cytosine-5)-methyltransferase 1 (Homo sapiens, UniProt P26358); assay: Inhibition of DNMT1 (unknown origin) using histone peptide/SAM as substrate by AlphaLisa assay
# T6 sequence (P26358 whole entry): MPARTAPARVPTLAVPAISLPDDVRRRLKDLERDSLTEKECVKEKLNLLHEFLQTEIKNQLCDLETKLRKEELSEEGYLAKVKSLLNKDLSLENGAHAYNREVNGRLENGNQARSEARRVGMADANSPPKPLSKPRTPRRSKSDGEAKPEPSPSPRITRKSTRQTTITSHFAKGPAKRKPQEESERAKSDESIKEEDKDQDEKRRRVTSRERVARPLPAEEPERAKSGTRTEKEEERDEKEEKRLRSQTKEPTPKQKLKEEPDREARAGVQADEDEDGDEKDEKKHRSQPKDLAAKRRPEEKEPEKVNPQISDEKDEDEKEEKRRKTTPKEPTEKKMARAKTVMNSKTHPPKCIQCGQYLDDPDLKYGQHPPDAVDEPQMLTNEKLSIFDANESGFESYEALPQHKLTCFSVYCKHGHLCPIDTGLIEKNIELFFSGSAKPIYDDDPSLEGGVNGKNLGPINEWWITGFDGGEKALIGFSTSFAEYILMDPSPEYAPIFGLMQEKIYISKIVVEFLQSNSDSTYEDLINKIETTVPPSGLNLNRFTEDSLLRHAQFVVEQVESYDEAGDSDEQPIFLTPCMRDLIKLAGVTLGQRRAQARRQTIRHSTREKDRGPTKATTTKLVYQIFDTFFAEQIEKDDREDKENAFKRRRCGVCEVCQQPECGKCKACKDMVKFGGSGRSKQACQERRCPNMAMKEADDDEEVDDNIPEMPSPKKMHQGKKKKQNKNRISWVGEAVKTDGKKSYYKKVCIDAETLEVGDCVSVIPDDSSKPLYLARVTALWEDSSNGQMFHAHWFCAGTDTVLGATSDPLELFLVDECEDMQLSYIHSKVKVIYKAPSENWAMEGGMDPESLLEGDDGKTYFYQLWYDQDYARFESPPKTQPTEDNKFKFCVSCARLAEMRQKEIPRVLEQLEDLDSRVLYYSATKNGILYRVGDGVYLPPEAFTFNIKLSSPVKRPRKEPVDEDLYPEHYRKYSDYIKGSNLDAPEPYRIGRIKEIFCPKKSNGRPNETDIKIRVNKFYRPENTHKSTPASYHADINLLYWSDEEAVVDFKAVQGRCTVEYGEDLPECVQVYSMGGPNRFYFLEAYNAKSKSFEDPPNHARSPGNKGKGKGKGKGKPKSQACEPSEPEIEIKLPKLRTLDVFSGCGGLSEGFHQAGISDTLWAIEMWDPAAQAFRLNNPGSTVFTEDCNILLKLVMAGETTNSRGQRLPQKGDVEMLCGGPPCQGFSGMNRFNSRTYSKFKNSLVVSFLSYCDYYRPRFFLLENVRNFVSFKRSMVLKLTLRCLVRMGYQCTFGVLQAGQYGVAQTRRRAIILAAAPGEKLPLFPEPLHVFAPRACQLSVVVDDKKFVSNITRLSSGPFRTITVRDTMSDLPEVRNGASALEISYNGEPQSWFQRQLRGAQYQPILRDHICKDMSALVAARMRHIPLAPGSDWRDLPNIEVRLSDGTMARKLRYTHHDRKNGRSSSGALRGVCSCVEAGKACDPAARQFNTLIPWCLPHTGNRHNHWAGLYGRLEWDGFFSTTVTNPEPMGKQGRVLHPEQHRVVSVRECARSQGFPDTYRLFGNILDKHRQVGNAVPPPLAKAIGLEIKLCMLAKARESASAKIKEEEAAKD
# [23] = target: T1, Protein arginine N-methyltransferase 1; assay: Inhibition of PRMT1 (unknown origin) using histone peptide/SAM as substrate at 10 uM by AlphaLisa assay
# [24] = target: Histone-arginine methyltransferase CARM1 (Homo sapiens) (UniProt Q86X55); assay: Inhibition of PRMT4 (unknown origin) using histone peptide/SAM as substrate at 10 uM by AlphaLisa assay
# [25] = target: T2, Protein arginine N-methyltransferase 5; assay: Inhibition of PRMT5 (unknown origin) using histone peptide/SAM as substrate at 10 uM by AlphaLisa assay
# [26] = target: T3, Histone-lysine N-methyltransferase, H3 lysine-36 specific; assay: Inhibition of NSD1 (unknown origin) using histone peptide/SAM as substrate at 10 uM by AlphaLisa assay
# [27] = target: Histone-lysine N-methyltransferase NSD2 (Homo sapiens) (UniProt O96028); assay: Inhibition of NSD2 (unknown origin) using histone peptide/SAM as substrate at 10 uM by AlphaLisa assay
# [28] = target: T4, Histone-lysine N-methyltransferase 2A; assay: Inhibition of MLL1 (unknown origin) using histone peptide/SAM as substrate at 10 uM by HTRF assay
# [29] = target: T5, Histone-lysine N-methyltransferase 2B; assay: Inhibition of MLL4 (unknown origin) using histone peptide/SAM as substrate at 10 uM by HTRF assay
# [30] = target: Histone-lysine N-methyltransferase EHMT2 (Homo sapiens) (UniProt Q96KQ7); assay: Inhibition of G9a (unknown origin) using histone peptide/SAM as substrate at 10 uM by AlphaLisa assay
# [31] = target: Histone-lysine N-methyltransferase EHMT1 (Homo sapiens) (UniProt Q9H9B1); assay: Inhibition of GLP (unknown origin) using histone peptide/SAM as substrate at 10 uM by AlphaLisa assay
# [32] = target: T6, DNA (cytosine-5)-methyltransferase 1; assay: Inhibition of DNMT1 (unknown origin) using histone peptide/SAM as substrate at 10 uM by AlphaLisa assay
# Pfeiffer [33] = assay: Antiproliferative activity against human Pfeiffer cells expressing EZH2 mutant assessed as inhibition of cell proliferation incubated for 6 days by CCK8 assay; format: functional, cell-based; conditions: time 6.0 day
# KARPAS-422 [34] = assay: Antiproliferative activity against human KARPAS-422 cells expressing EZH2 mutant assessed as inhibition of cell proliferation incubated for 6 days by CCK8 assay; format: functional, cell-based; conditions: time 6.0 day
# RL = assay: Antiproliferative activity against human RL cells expressing EZH2 mutant assessed as inhibition of cell proliferation incubated for 6 days by CCK8 assay; format: functional, cell-based; conditions: time 6.0 day
# SU-DHL-2 = assay: Antiproliferative activity against human SUDHL2 cells expressing EZH2 mutant assessed as inhibition of cell proliferation incubated for 6 days by CCK8 assay; format: functional, cell-based; conditions: SU-DHL-2, 144 h
# SU-DHL10 = assay: Antiproliferative activity against human SU-DHL-10 cells expressing EZH2 mutant assessed as inhibition of cell proliferation incubated for 6 days by CCK8 assay; format: functional, cell-based; conditions: time 6.0 day
# Karpas-1106P = assay: Antiproliferative activity against human KARPAS-1106P cells expressing wild-type EZH2 assessed as inhibition of cell proliferation incubated for 6 days by CCK8 assay; format: functional, cell-based; conditions: time 6.0 day
# DB = assay: Antiproliferative activity against human DB cells expressing wild-type EZH2 assessed as inhibition of cell proliferation incubated for 6 days by CCK8 assay; format: functional, cell-based; conditions: 144 h
# WSUDLCL2 = assay: Antiproliferative activity against human WSUDLCL2 cells expressing wild-type EZH2 assessed as inhibition of cell proliferation incubated for 6 days by CCK8 assay; format: functional, cell-based; conditions: WSUDLCL2, 144 h
# U2932 = assay: Antiproliferative activity against human U2932 cells expressing wild-type EZH2 assessed as inhibition of cell proliferation incubated for 6 days by CCK8 assay; format: functional, cell-based; conditions: U2932, 144 h
# HT = assay: Antiproliferative activity against human HT cells expressing wild-type EZH2 assessed as inhibition of cell proliferation incubated for 6 days by CCK8 assay; format: functional, cell-based; conditions: time 6.0 day
# OPM-2 = assay: Antiproliferative activity against human OPM-2 cells expressing wild-type EZH2 assessed as inhibition of cell proliferation incubated for 6 days by CCK8 assay; format: functional, cell-based; conditions: OPM-2, 144 h
# [35] = Half life in Sprague-Dawley rat at 3 mg/kg, iv measured for 0.25 to 24 hrs by LC-MS/MS analysis; format: ADME, organism-based; conditions: in vivo, time 0.25-24 hrs
# [36] = AUC (0 to last) in Sprague-Dawley rat at 3 mg/kg, iv measured for 0.25 to 24 hrs by LC-MS/MS analysis; format: ADME, organism-based; design: time 0.25-24 hrs, dose 3 mg/kg, route iv; conditions: in vivo
# [37] = Cmax in Sprague-Dawley rat at 10 mg/kg, po measured for 0.25 to 24 hrs by LC-MS/MS analysis; format: ADME, organism-based; design: time lower 0.25 hrs, dose 10 mg/kg, time upper 24 hrs, route po; conditions: in vivo
# [38] = AUC (0 to last) in Sprague-Dawley rat at 10 mg/kg, po measured for 0.25 to 24 hrs by LC-MS/MS analysis; format: ADME, organism-based; design: dose 10 mg/kg, time upper 24 hrs, time lower 0.25 hrs, route po; conditions: in vivo
# [39] = Bioavailability in Sprague-Dawley rat at 10 mg/kg, po measured for 0.25 to 24 hrs by LC-MS/MS analysis; format: ADME, organism-based; conditions: in vivo, time 0.25-24 hrs
smiles,measurement,setting,value
C=CC(=O)NCc1cc(C(=O)NCc2c(SC)cc(C)[nH]c2=O)c(C)c(N(CC)C2CCOCC2)c1,Activity,KARPAS-422 [1],Dose-Dependent Effect
same,Activity,KARPAS-422 [2],Tde
same,IC50,KARPAS-422 [3],0.064 µM
same,IC50,Pfeiffer [4],0.022 µM
same,half-life,[5],33.8 min
same,Papp at 20 µM,[6],0.052 ×10⁻⁶ cm/s
same,Activity,Pfeiffer [7],Dose-Dependent Effect
same,Activity,Pfeiffer [8],Tde
same,Activity,Pfeiffer [9],inactive
same,Activity,Pfeiffer [10],inactive
same,Activity,Pfeiffer [11],Active
same,IC50,[12],> 3 µM
same,IC50,[13],> 10 µM
same,IC50,[14],> 10 µM
same,IC50,[15],> 10 µM
same,IC50,[16],> 10 µM
same,IC50,[17],> 10 µM
same,IC50,[18],> 10 µM
same,IC50,[19],> 10 µM
same,IC50,[20],> 10 µM
same,IC50,[21],> 10 µM
same,IC50,[22],> 10 µM
same,inhibition,[23],inactive
same,inhibition,[24],inactive
same,inhibition,[25],inactive
same,inhibition,[26],inactive
same,inhibition,[27],inactive
same,inhibition,[28],inactive
same,inhibition,[29],inactive
same,inhibition,[30],inactive
same,inhibition,[31],inactive
same,inhibition,[32],inactive
same,inhibition,Pfeiffer [33],Active
same,inhibition,KARPAS-422 [34],Active
same,inhibition,RL,Active
same,IC50,SU-DHL-2,> 3 µM
same,inhibition,SU-DHL10,Active
same,inhibition,Karpas-1106P,Active
same,IC50,DB,> 3 µM
same,IC50,WSUDLCL2,> 3 µM
same,IC50,U2932,> 3 µM
same,inhibition,HT,Active
same,IC50,OPM-2,> 3 µM
same,t1/2,[35],16.8 min
same,AUC(0-t),[36],4890 ng·h/mL
same,Cmax,[37],29.5 ng/mL
same,AUC(0-t),[38],8.16 ng·h/mL
same,bioavailability,[39],0.05%
